Results reported in patent publication US20140322196A1 (priority 2011, published 2014).
Ends that are not written are not given here.

How the values were obtained:
A/Parma/24/09 H1N1 = conditions: read-out: EC50 (effective concentration 50%); A/Parma/24/09 H1N1, MDCK cells
A/Parma/05/06 H3N2 = conditions: read-out: EC50 (effective concentration 50%); A/Parma/05/06 H3N2, MDCK cells
A/Roma-ISS/2/08 H1N1 = conditions: read-out: EC50 (effective concentration 50%); A/Roma-ISS/2/08 H1N1, MDCK cells
Cytotoxicity assay = type: cell-based, canine; conditions: dog, MDCK cells, read-out: CC50 (cytotoxic concentration 50%)
Description: To establish the maximal non-cytotoxic dose of bLf and its derivatives, two-fold serial dilutions of each substance in culture medium were incubated at 37° C. with confluent MDCK cells grown in 96-well tissue culture microplates (Nalge Europe Ltd, Neerijse, Belgium). After 24 h, the following parameters were evaluated: cell morphology and viability (determined by neutral red staining) were examined by light microscopy and cell proliferation was evaluated quantitatively by microscopic counts after dispersion into individual cells with trypsin.

Peptide stability = type: physicochemical

With “AGDDQGLDKCVPNSKEK [SEQ ID NO: 2, AGDDQGLDKCVPNSKEK]” the EC50 (A/Parma/24/09 H1N1) was 0.0034 nM, the EC50 (A/Parma/05/06 H3N2) was 0.0073 nM and the EC50 (A/Roma-ISS/2/08 H1N1) was 0.0037 nM. It also gave a CC50 at 24 h (Cytotoxicity assay) of over 25000 nM.
Work on NGESSADWAKN [SEQ ID NO: 4, NGESSADWAKN] yielded an EC50 (A/Parma/05/06 H3N2) of 0.0225 nM and a CC50 at 24 h (Cytotoxicity assay) of over 25000 nM.
In the case of “NGESTADWAKN (bovine lactoferrin peptide from 553 aa to 563 aa) [SEQ ID NO: 3, bLf C-lobe peptide, residues 553-563]”, the “stability of the peptide (in words)” value (Peptide stability) is reported as “poor stability”.
For “SKHSSLDCVLRP [SEQ ID NO: 1, SKHSSLDCVLRP]”, the EC50 (A/Parma/24/09 H1N1) was 0.0031 nM, the EC50 (A/Parma/05/06 H3N2) was 0.0058 nM and the EC50 (A/Roma-ISS/2/08 H1N1) was 0.004 nM. The CC50 at 24 h (Cytotoxicity assay) was over 25000 nM.
